Measured values published in patent US20020137929A1, “1 - (3-heterocyclylphenyl) isothiourea, -isourea, -guanidine and -amidine herbicidal agents” (Intellectual Property Department, BASF Aktiengesellschaft, priority 1998, published 2002).

How the values were obtained:
ABUTH (Velvetleaf) [1] = assay: Postemergence herbicidal evaluation; assay type: in vivo, Abutilon theophrasti
Summary of the method: (§1)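 Compound is applied as a foliar spray to seedlings about two weeks old, formulated in equal parts acetone and water with 0.5% TWEEN 20 and delivered at 40 psi to give about 0.0156–0.500 kg per hectare. Injury is rated visually 0–9 after four to five weeks.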

[2] = tested on: IPOHE (Morningglory, Ivyleaf); assay: Postemergence herbicidal evaluation; assay type: in vivo, Ipomoea hederacea
Summary of the method: as §1

SETVI (Foxtail, Green) = assay: Postemergence herbicidal evaluation; assay type: in vivo, Setaria viridis
Summary of the method: as §1

[3] = tested on: GLXMAW (Soybean, Williams); assay: Postemergence herbicidal evaluation; assay type: in vivo, Glycine max, (L.) Merr. cv Williams
Summary of the method: as §1

ZEAMX (Corn, Field) = assay: Postemergence herbicidal evaluation; assay type: in vivo, Zea mays
Summary of the method: as §1

ABUTH (Velvetleaf) [4] = assay: Preemergence herbicidal evaluation; assay type: in vivo, Abutilon theophrasti; conditions: rated 4-5 weeks after treatment
Summary of the method: (§2)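 Visual 0-9 rating vs control (stand, vigor, malformation, size, chlorosis, overall appearance), scored 4-5 wk after spraying. Seeded soil cups were treated preemergence with compound in aqueous acetone, ~0.0156-0.500 kg/ha equivalent.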

AMBEL (Ragweed, Common) = assay: Preemergence herbicidal evaluation; assay type: in vivo, Ambrosia artemisifolia; conditions: rated 4-5 weeks after treatment
Summary of the method: as §2

CASOB (Sicklepod) = assay: Preemergence herbicidal evaluation; assay type: in vivo, Cassia obtusifolia; conditions: rated 4-5 weeks after treatment
Summary of the method: as §2

[5] = tested on: IPOHE (Morningglory, Ivyleaf); assay: Preemergence herbicidal evaluation; assay type: in vivo, Ipomoea hederacea; conditions: rated 4-5 weeks after treatment
Summary of the method: as §2

ECHCG (Barnyardgrass) = assay: Preemergence herbicidal evaluation; assay type: in vivo, Echinochloa crus-galli; conditions: rated 4-5 weeks after treatment
Summary of the method: as §2

[6] = tested on: ECHORC (Watergrass (Calif.)); assay: Preemergence weed control under flooded paddy conditions; assay type: in vivo, Echinochloa oryzoides; conditions: rated 3-4 weeks after treatment
Summary of the method: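 Ratings on a 0-9 visual scale cover stand, vigor, malformation, size, chlorosis and overall appearance relative to a control, taken three to four weeks post-treatment. Application was into flood water over freshly sown silt loam at roughly 0.0313 to 0.500 kg/ha.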

CYPSE (Flatsedge) = assay: as above; assay type: in vivo, Cyperus serotinus; conditions: rated 3-4 weeks after treatment
Summary of the method: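 Seeds or propagules sown in top 0.5 cm of silt loam soil, flooded 1.5 to 3 cm above surface throughout. Compound in 50/50 v/v aqueous/acetone pipetted into flood water at about 0.0313 to 0.500 kg/ha. Visual 0-9 rating versus control after three to four weeks in greenhouse.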

[7] = tested on: ECHORC (Watergrass (Calif.)); assay: Postemergence weed control under flooded paddy conditions; assay type: in vivo, Echinochloa oryzoides; conditions: postemergence weeds, 3-4 weeks after treatment
Summary of the method: (§3)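 Herbicidal effect is judged by eye on a 0–9 scale versus control, 3–4 weeks after dosing. Dosing is into flood water kept 1.5–3 cm over the soil, at about 0.0313–0.500 kg/ha in aqueous/acetone 50/50 v/v, on 3–5 cm weeds and 1.5–2.5-leaf rice seedlings.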

CYPIR (Rice Flatsedge) = assay: as above; assay type: in vivo, Cyperus iria; conditions: postemergence weeds, 3-4 weeks after treatment
Summary of the method: as §3

Cn1c(C(F)(F)F)cc(=O)n(-c2cc(N=C3SCC(=O)N3[C@@H](Cc3ccccc3)C(=O)O)c(Cl)cc2F)c1=O [Compound 53, α-Benzyl-2-{{2-chloro-5-[3,6-dihydro-3-methyl-2,6-dioxo-4-(trifluoromethyl)-1(2H)-pyrimidinyl]-4-fluorophenyl}imino}-4-oxo-3-thiazolidineacetic acid, L-] was tested, and the “Postemergence herbicidal rating ABUTH” value (ABUTH (Velvetleaf) [1]; Rate 0.0158 kg/ha) was 9.0, the “Postemergence herbicidal rating ABUTH” value (ABUTH (Velvetleaf) [1]; Rate 0.0315 kg/ha) was 9.0 and the “Postemergence herbicidal rating ABUTH” value (ABUTH (Velvetleaf) [1]; Rate 0.0630 kg/ha) was 9.0. For the same compound, the “Postemergence herbicidal rating IPOHE” value ([2]; Rate 0.0158 kg/ha) was 9.0, the “Postemergence herbicidal rating IPOHE” value ([2]; Rate 0.0315 kg/ha) was 9.0 and the “Postemergence herbicidal rating IPOHE” value ([2]; Rate 0.0630 kg/ha) was 9.0. The “Postemergence herbicidal rating SETVI” value (SETVI (Foxtail, Green); Rate 0.0158 kg/ha) was 6.0, the “Postemergence herbicidal rating SETVI” value (SETVI (Foxtail, Green); Rate 0.0315 kg/ha) was 6.0 and the “Postemergence herbicidal rating SETVI” value (SETVI (Foxtail, Green); Rate 0.0630 kg/ha) was 7.0. For the same compound, the “Postemergence herbicidal rating GLXMAW” value ([3]; Rate 0.0158 kg/ha) was 9.0, the “Postemergence herbicidal rating GLXMAW” value ([3]; Rate 0.0315 kg/ha) was 9.0 and the “Postemergence herbicidal rating GLXMAW” value ([3]; Rate 0.0630 kg/ha) was 9.0. For the same compound, the “Postemergence herbicidal rating ZEAMX” value (ZEAMX (Corn, Field); Rate 0.0158 kg/ha) was 5.5, the “Postemergence herbicidal rating ZEAMX” value (ZEAMX (Corn, Field); Rate 0.0315 kg/ha) was 7.5 and the “Postemergence herbicidal rating ZEAMX” value (ZEAMX (Corn, Field); Rate 0.0630 kg/ha) was 8.0. The “Preemergence herbicidal rating ABUTH” value (ABUTH (Velvetleaf) [4]; rate 0.0313 kg/ha) was 7.0, the “Preemergence herbicidal rating ABUTH” value (ABUTH (Velvetleaf) [4]; rate 0.0625 kg/ha) was 9.0 and the “Preemergence herbicidal rating ABUTH” value (ABUTH (Velvetleaf) [4]; rate 0.1250 kg/ha) was 9.0. The “Preemergence herbicidal rating ABUTH” value (ABUTH (Velvetleaf) [4]; rate 0.2500 kg/ha) was 9.0, the “Preemergence herbicidal rating AMBEL” value (AMBEL (Ragweed, Common); rate 0.0313 kg/ha) was 0.0 and the “Preemergence herbicidal rating AMBEL” value (AMBEL (Ragweed, Common); rate 0.0625 kg/ha) was 9.0. For the same compound, the “Preemergence herbicidal rating AMBEL” value (AMBEL (Ragweed, Common); rate 0.1250 kg/ha) was 9.0, the “Preemergence herbicidal rating AMBEL” value (AMBEL (Ragweed, Common); rate 0.2500 kg/ha) was 9.0 and the “Preemergence herbicidal rating CASOB” value (CASOB (Sicklepod); rate 0.0313 kg/ha) was 0.0. For the same compound, the “Preemergence herbicidal rating CASOB” value (CASOB (Sicklepod); rate 0.0625 kg/ha) was 0.0, the “Preemergence herbicidal rating CASOB” value (CASOB (Sicklepod); rate 0.1250 kg/ha) was 1.0 and the “Preemergence herbicidal rating CASOB” value (CASOB (Sicklepod); rate 0.2500 kg/ha) was 1.0. For the same compound, the “Preemergence herbicidal rating IPOHE” value ([5]; rate 0.0313 kg/ha) was 0.0, the “Preemergence herbicidal rating IPOHE” value ([5]; rate 0.0625 kg/ha) was 9.0 and the “Preemergence herbicidal rating IPOHE” value ([5]; rate 0.1250 kg/ha) was 9.0. For the same compound, the “Preemergence herbicidal rating IPOHE” value ([5]; rate 0.2500 kg/ha) was 9.0, the “Preemergence herbicidal rating ECHCG” value (ECHCG (Barnyardgrass); rate 0.0313 kg/ha) was 1.0 and the “Preemergence herbicidal rating ECHCG” value (ECHCG (Barnyardgrass); rate 0.0625 kg/ha) was 4.0. For the same compound, the “Preemergence herbicidal rating ECHCG” value (ECHCG (Barnyardgrass); rate 0.1250 kg/ha) was 7.0, the “Preemergence herbicidal rating ECHCG” value (ECHCG (Barnyardgrass); rate 0.2500 kg/ha) was 9.0 and the “Herbicidal rating ECHORC” value ([6]; 0.0313 kg/ha) was 0.0. For the same compound, the “Herbicidal rating ECHORC” value ([6]; 0.0625 kg/ha) was 0.0, the “Herbicidal rating ECHORC” value ([6]; 0.1250 kg/ha) was 2.0 and the “Herbicidal rating ECHORC” value ([6]; 0.2500 kg/ha) was 3.0. The “Herbicidal rating CYPSE” value (CYPSE (Flatsedge); 0.0313 kg/ha) was 0.0, the “Herbicidal rating CYPSE” value (CYPSE (Flatsedge); 0.0625 kg/ha) was 0.0 and the “Herbicidal rating CYPSE” value (CYPSE (Flatsedge); 0.1250 kg/ha) was 0.0. For the same compound, the “Herbicidal rating CYPSE” value (CYPSE (Flatsedge); 0.2500 kg/ha) was 0.0, the “Herbicidal rating ECHORC” value ([7]; rate 0.0313 kg/ha) was 0.0 and the “Herbicidal rating ECHORC” value ([7]; rate 0.0625 kg/ha) was 0.0. For the same compound, the “Herbicidal rating ECHORC” value ([7]; rate 0.1250 kg/ha) was 2.0, the “Herbicidal rating ECHORC” value ([7]; rate 0.2500 kg/ha) was 3.0 and the “Herbicidal rating CYPIR” value (CYPIR (Rice Flatsedge); rate 0.0313 kg/ha) was 2.0. The “Herbicidal rating CYPIR” value (CYPIR (Rice Flatsedge); rate 0.0625 kg/ha) was 2.0, the “Herbicidal rating CYPIR” value (CYPIR (Rice Flatsedge); rate 0.1250 kg/ha) was 9.0 and the “Herbicidal rating CYPIR” value (CYPIR (Rice Flatsedge); rate 0.2500 kg/ha) was 9.0.

For CCOP(=O)(CN1C(=O)CSC1=Nc1cc(-n2c(=O)cc(C(F)(F)F)n(C)c2=O)c(F)cc1Cl)OCC [Compound 35, Diethyl {{2-{{2-chloro-5-[3,6-dihydro-3-methyl-2,6-dioxo-4-(trifluoromethyl)-1(2H)-pyrimidinyl]-4-fluorophenyl}imino}-4-oxo-3-thiazolidinyl}methyl}phosphonate], the “Postemergence herbicidal rating ABUTH” value (ABUTH (Velvetleaf) [1]; Rate 0.0158 kg/ha) was 9.0, the “Postemergence herbicidal rating ABUTH” value (ABUTH (Velvetleaf) [1]; Rate 0.0315 kg/ha) was 9.0 and the “Postemergence herbicidal rating ABUTH” value (ABUTH (Velvetleaf) [1]; Rate 0.0630 kg/ha) was 9.0. For the same compound, the “Postemergence herbicidal rating IPOHE” value ([2]; Rate 0.0158 kg/ha) was 9.0, the “Postemergence herbicidal rating IPOHE” value ([2]; Rate 0.0315 kg/ha) was 9.0 and the “Postemergence herbicidal rating IPOHE” value ([2]; Rate 0.0630 kg/ha) was 9.0. For the same compound, the “Postemergence herbicidal rating SETVI” value (SETVI (Foxtail, Green); Rate 0.0158 kg/ha) was 0.0, the “Postemergence herbicidal rating SETVI” value (SETVI (Foxtail, Green); Rate 0.0315 kg/ha) was 2.0 and the “Postemergence herbicidal rating SETVI” value (SETVI (Foxtail, Green); Rate 0.0630 kg/ha) was 4.0. The “Postemergence herbicidal rating GLXMAW” value ([3]; Rate 0.0158 kg/ha) was 7.0, the “Postemergence herbicidal rating GLXMAW” value ([3]; Rate 0.0315 kg/ha) was 7.5 and the “Postemergence herbicidal rating GLXMAW” value ([3]; Rate 0.0630 kg/ha) was 9.0. For the same compound, the “Postemergence herbicidal rating ZEAMX” value (ZEAMX (Corn, Field); Rate 0.0158 kg/ha) was 3.5, the “Postemergence herbicidal rating ZEAMX” value (ZEAMX (Corn, Field); Rate 0.0315 kg/ha) was 3.5 and the “Postemergence herbicidal rating ZEAMX” value (ZEAMX (Corn, Field); Rate 0.0630 kg/ha) was 4.5. For the same compound, the “Preemergence herbicidal rating ABUTH” value (ABUTH (Velvetleaf) [4]; rate 0.0625 kg/ha) was 9.0, the “Preemergence herbicidal rating ABUTH” value (ABUTH (Velvetleaf) [4]; rate 0.1250 kg/ha) was 9.0 and the “Preemergence herbicidal rating ABUTH” value (ABUTH (Velvetleaf) [4]; rate 0.2500 kg/ha) was 9.0. For the same compound, the “Preemergence herbicidal rating AMBEL” value (AMBEL (Ragweed, Common); rate 0.0625 kg/ha) was 0.0, the “Preemergence herbicidal rating AMBEL” value (AMBEL (Ragweed, Common); rate 0.1250 kg/ha) was 3.0 and the “Preemergence herbicidal rating AMBEL” value (AMBEL (Ragweed, Common); rate 0.2500 kg/ha) was 9.0. For the same compound, the “Preemergence herbicidal rating CASOB” value (CASOB (Sicklepod); rate 0.0625 kg/ha) was 0.0, the “Preemergence herbicidal rating CASOB” value (CASOB (Sicklepod); rate 0.1250 kg/ha) was 0.0 and the “Preemergence herbicidal rating CASOB” value (CASOB (Sicklepod); rate 0.2500 kg/ha) was 3.0. For the same compound, the “Preemergence herbicidal rating IPOHE” value ([5]; rate 0.0625 kg/ha) was 0.0, the “Preemergence herbicidal rating IPOHE” value ([5]; rate 0.1250 kg/ha) was 3.0 and the “Preemergence herbicidal rating IPOHE” value ([5]; rate 0.2500 kg/ha) was 9.0. For the same compound, the “Preemergence herbicidal rating ECHCG” value (ECHCG (Barnyardgrass); rate 0.0625 kg/ha) was 0.0, the “Preemergence herbicidal rating ECHCG” value (ECHCG (Barnyardgrass); rate 0.1250 kg/ha) was 0.0 and the “Preemergence herbicidal rating ECHCG” value (ECHCG (Barnyardgrass); rate 0.2500 kg/ha) was 0.0. For the same compound, the “Herbicidal rating ECHORC” value ([6]; 0.1250 kg/ha) was 3.0, the “Herbicidal rating ECHORC” value ([6]; 0.2500 kg/ha) was 6.0 and the “Herbicidal rating CYPSE” value (CYPSE (Flatsedge); 0.1250 kg/ha) was 0.0. The “Herbicidal rating CYPSE” value (CYPSE (Flatsedge); 0.2500 kg/ha) was 0.0, the “Herbicidal rating ECHORC” value ([7]; rate 0.1250 kg/ha) was 3.0 and the “Herbicidal rating ECHORC” value ([7]; rate 0.2500 kg/ha) was 6.0. The “Herbicidal rating CYPIR” value (CYPIR (Rice Flatsedge); rate 0.1250 kg/ha) was 0.0 and the “Herbicidal rating CYPIR” value (CYPIR (Rice Flatsedge); rate 0.2500 kg/ha) was 0.0.
